Assay results reported in patent publication US9834563B2 (Merck Sharp & Dohme Corp., priority 2013, dated 2017).

Assays:
Human GPR40 [1] = biological target: T1, Human GPR40 (Homo sapiens, UniProt O14842); experiment: Inositol phosphate turnover (IP1) assay in HEK cells stably expressing human GPR40; format: cell-based; parameters: expressed in transfected cells; conditions: HEK cells stably expressing human GPR40, 3H-inositol labeling, 60 min compound incubation
Procedure: (§1) Human and mouse GPR40 stable cell-lines were generated in CHO cells stably expressing NFAT BLA (Beta-lactamase). A human GPR40 stable cell-line was generated in HEK cells stably expressing the aequorin expressing reporter. The expression plasmids were transfected using lipofectamine, LIFE TECHNOLOGIES (Carlsbad, Calif.), following manufacturer's instructions. Stable cell-lines were generated following drug selection.
The assay is performed in a 96-well format. HEK cells stably expressing human GPR40 are plated to be 60-80% confluent within 72 h. After 72 h, the plates are aspirated and the cells washed with inositol-free DMEM (ICN). The wash media is replaced with 150 μL of 3H-inositol labeling media (inositol-free media containing 0.4% human albumin or 0.4% mouse albumin, 1× pen/strep antibiotics, glutamine, 25 mM HEPES to which is added 3H-myo-inositol NEN #NET114A 1 mCi/mL, 25 Ci/mmol diluted 1:150 in loading media with a final specific radioactivity of 1 μCi/150 μL). Alternatively, the human and mouse albumin can be added after the overnight labeling step before the addition of LiCl.
The assay is typically run the next day after 18 h labeling. On the day of the assay, 5 μL of 300 mM LiCl is added to all wells and incubated at 37 degrees for 20 min. 0.75 μL of 200× compounds are added and incubated with the cells for 60 min at 37 degrees. The media is then aspirated off and the assay terminated with the addition of 60 μL 10 mM formic acid. The cells are lysed for 60 min at room temperature. 15-30 μL of lysate is mixed with 70 μL/1 mg YSi SPA beads AMERSHAM (United Kingdom) in clear bottom Isoplates. The plates are shaken for 2 h at room temperature. Beads are allowed to settle and the plates are counted in the Wallac MICROBETA instrument. The activities of the compounds in the examples have EC50 (effective concentration of compound to afford 50% of the maximum observed […]) values listed in Table I.

Human GPR40 [2] = biological target: T1, Human GPR40; experiment: FLIPR assay: agonist-induced calcium mobilization in GPR40/CHO NFAT BLA cells; format: cell-based; parameters: expressed in transfected cells; host or cells: CHO cells stably expressing NFAT BLA (beta-lactamase)
From the text: as §1
FLIPR (Fluorimetric Imaging Plate Reader, Molecular Devices) assays were performed to measure agonist-induced calcium mobilization of the stable clones. For the FLIPR assay, one day before assay, GPR40/CHO NFAT BLA cells were seeded into black-wall-clear-bottom 384-well plates (Costar) at 1.4×10e4 cells/20 μL medium/well. The cells were incubated with 20 μl/well of the assay buffer (HBSS, 0.1% BSA, 20 mM HEPES, 2.5 mM probenecid, pH 7.4) containing 8 μM fluo-4, AM, 0.08% pluronic acid at room temperature for 100 minutes. Fluorescence output was measured using FLIPR. Compounds were dissolved in DMSO and diluted to desired concentrations with assay buffer. 13.3 μL/well of compound solution was added. The activities of the compounds in the examples have EC50 (effective concentration of compound to afford 50% of the maximum observed fluorescence) values listed in Table I.

T1 sequence (O14842 whole entry): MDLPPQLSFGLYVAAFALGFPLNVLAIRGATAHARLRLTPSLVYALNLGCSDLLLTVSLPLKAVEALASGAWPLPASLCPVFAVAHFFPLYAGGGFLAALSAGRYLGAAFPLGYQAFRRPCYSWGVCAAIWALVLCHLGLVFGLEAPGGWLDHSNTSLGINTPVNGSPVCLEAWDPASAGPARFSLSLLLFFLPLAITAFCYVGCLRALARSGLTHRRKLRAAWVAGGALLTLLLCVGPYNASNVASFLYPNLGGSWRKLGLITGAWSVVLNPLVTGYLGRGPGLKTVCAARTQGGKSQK

Row | SMILES | EC50 (Human GPR40 [1]) [µM] | EC50 (Human GPR40 [2]) [µM]
1 | Cc1nc(N2CCC(CNS(C)(=O)=O)C2)ccc1-c1ccc(F)c(COc2ccc3c(c2)C[C@H]2[C@H](C(=O)O)[C@@H]32)c1 (stereo partly drawn) [Example 47, (1S,1aS,6aR)-4-((2-fluoro-5-(2-methyl-6-(3-(methylsulfonamidomethyl)pyrrolidin-1-yl)pyridin-3-yl)benzyl)oxy)-1,1a,6,6a-tetrahydrocyclopropa[a]indene-1-carboxylic acid] | 0.016 | 0.0178
2 | Cc1nc(N2CCC(O)CC2)ccc1-c1ccc(F)c(COc2ccc3c(c2)C[C@H]2[C@H](C(=O)O)[C@@H]32)c1 [Example 41, (1S,1aS,6aR)-4-((2-fluoro-5-(6-(4-hydroxypiperidin-1-yl)-2-methylpyridin-3-yl)benzyl)oxy)-1,1a,6,6a-tetrahydrocyclopropa[a]indene-1-carboxylic acid] | 0.006 | 0.0224
3 | Cc1cc(OCCCS(C)(=O)=O)ncc1-c1ccc(F)c(COc2ccc3c(c2)C[C@H]2[C@H](C(=O)O)[C@@H]32)c1F [Example 22, 4-(2,6-difluoro-3-[6-(3-methanesulfonyl-propoxy)-4-methyl-pyridin-3-yl]-benzyloxy)-1,1a,6,6a-tetrahydro-cyclopropa[a]indene-1-carboxylic acid] |  | 0.0589
4 | Cc1nc(OCC2CCOCC2)ccc1-c1ccc(F)c(COc2ccc3c(c2)C[C@H]2[C@H](C(=O)O)[C@@H]32)c1 [Example 28, (1S,1aS,6aR)-4-((2-fluoro-5-(2-methyl-6-((tetrahydro-2H-pyran-4-yl)methoxy)pyridin-3-yl)benzyl)oxy)-1,1a,6,6a-tetrahydrocyclopropa[a]indene-1-carboxylic acid] | 0.008 | 0.0185
5 | Cc1cc(OCCCS(C)(=O)=O)nc(C)c1-c1ccc(F)c(COc2ccc3c(c2)C[C@H]2[C@H](C(=O)O)[C@@H]32)c1F [Example 21, 4-(2,6-difluoro-3-[6-(3-methanesulfonyl-propoxy)-2,4-dimethyl-pyridin-3-yl]-benzyloxy)-1,1a,6,6a-tetrahydro-cyclopropa[a]indene-1-carboxylic acid] |  | 0.0474
6 | Cc1nc(OCCCS(C)(=O)=O)ccc1-c1ccc(F)c(COc2ccc3c(c2)C[C@H]2[C@H](C(=O)O)[C@@H]32)c1 [Example 1, (1S,1aS,6aR)-4-[(2-fluoro-5-{2-methyl-6-[3-(methylsulfonyl)propoxy]pyridin-3-yl}benyzyl)oxy]-1,1a,6,6a-tetrahydrocyclopropa[a]indene-1-carboxylic acid] | 0.0073 | 0.046
7 | Cc1nc(OC2CCC(C(C)(C)O)CC2)ccc1-c1ccc(F)c(COc2ccc3c(c2)C[C@H]2[C@H](C(=O)O)[C@@H]32)c1 (stereo partly drawn) [Example 38, (1S,1aS,6aR)-4-((2-fluoro-5-(6-((4-(2-hydroxypropan-2-yl)cyclohexyl)oxy)-2-methylpyridin-3-yl)benzyl)oxy)-1,1a,6,6a-tetrahydro-cyclopropa[a]indene-1-carboxylic acid] | 0.0808 | 0.0741
8 | Cc1ccc(COc2ccc3c(c2)C[C@H]2[C@H](C(=O)O)[C@@H]32)cc1-c1cnc2c(ccn2CCCS(C)(=O)=O)c1 [Example 23, (1S,1aS,6aR)-4-((4-methyl-3-(1-(3-(methylsulfonyl)propyl)-1H-pyrrolo[2,3-b]pyridin-5-yl)benzyl)oxy)-1,1a,6,6a-tetrahydrocyclopropa[a]indene-1-carboxylic acid] | 0.0845 | 0.0742
9 | Cc1cc(NCCCS(C)(=O)=O)ncc1-c1cccc(COc2ccc3c(c2)C[C@H]2[C@H](C(=O)O)[C@@H]32)c1C [Example 16, 4-{3-[6-(3-Methanesulfonyl-propylamino)-4-methyl-pyridin-3-yl]-2-methyl-benzyloxy}-1,1a,6,6a-tetrahydro-cyclopropa[a]indene-1-carboxylic acid] |  | 4.28
10 | Cc1cc(OC2CCS(=O)(=O)CC2)nc(C)c1-c1ccc(F)c(COc2ccc3c(c2)C[C@H]2[C@H](C(=O)O)[C@@H]32)c1 [Example 9, 4-{5-[6-(1,1-Dioxo-hexahydro-l16-thiopyran-4-yloxy)-2,4-dimethyl-pyridin-3-yl]-2-fluoro-benzyloxy}-1,1a,6,6a-tetrahydro-cyclopropa[a]indene-1-carboxylic acid] |  | 0.099
11 | Cc1cc(OCCCS(C)(=O)=O)ncc1-c1ccc(F)c(COc2ccc3c(c2)C[C@H]2[C@H](C(=O)O)[C@@H]32)c1 [Example 19, (1S,1aS,6aR)-4-[(2-fluoro-5-{4-methyl-6-[3-(methylsulfonyl)propoxy]pyridin-3-yl}benzyl)oxy]-1,1a,6,6a-tetrahydrocyclopropa[a]indene-1-carboxylic acid] |  | 0.0055
12 | Cc1cc(OCCCS(C)(=O)=O)nc(C)c1-c1cccc(COc2ccc3c(c2)C[C@H]2[C@H](C(=O)O)[C@@H]32)c1C [Example 7, 4-{3-[6-(3-Methane-sulfonyl-propoxy)-2,4-dimethyl-pyridin-3-yl]-2-methyl-benzyloxy}-1,1a,6,6a-tetrahydro-cyclopropa[a]indene-1-carboxylic acid] |  | 0.098
13 | Cc1nc(OC2CCS(=O)(=O)CC2)ccc1-c1cccc(COc2ccc3c(c2)C[C@H]2[C@H](C(=O)O)[C@@H]32)c1C [Example 17, 4-{3-[6-(1,1-Dioxo-hexahydro-l16-thiopyran-4-yloxy)-2-methyl-pyridin-3-yl]-2-methyl-benzyloxy}-1,1a,6,6a-tetrahydro-cyclopropa[a]indene-1-carboxylic acid] |  | 0.252
14 | Cc1nc(N2CCC(S(C)(=O)=O)CC2)ccc1-c1cccc(COc2ccc3c(c2)C[C@H]2[C@H](C(=O)O)[C@@H]32)c1 [Example 3, (1S,1aS,6aR)-4-((3-(2-Methyl-6-(4-(methylsulfonyl)piperidin-1-yl)pyridin-3-yl)benzyl)oxy)-1,1a,6,6a-tetrahydrocyclopropa[a]indene-1-carboxylic acid] |  | 0.0599
15 | Cc1cc(OC2CCS(=O)(=O)CC2)nc(C)c1-c1cccc(COc2ccc3c(c2)C[C@H]2[C@H](C(=O)O)[C@@H]32)c1 [Example 13, 4-{3-[6-(1,1-Dioxo-hexahydro-l16-thiopyran-4-yloxy)-2,4-dimethyl-pyridin-3-yl]-benzyloxy}-1,1a,6,6a-tetrahydro-cyclopropa[a]indene-1-carboxylic acid] |  | 0.102
16 | Cc1cc(OCCCS(C)(=O)=O)ncc1-c1cccc(COc2ccc3c(c2)C[C@H]2[C@H](C(=O)O)[C@@H]32)c1C [Example 8, 4-{3-[6-(3-Methanesulfonyl-propoxy)-4-methyl-pyridin-3-yl]-2-methyl-benzyloxy}-1,1a,6,6a-tetrahydro-cyclopropa[a]indene-1-carboxylic acid] |  | 0.232
17 | CS(=O)(=O)CCCOc1ccc(-c2cccc(COc3ccc4c(c3)C[C@H]3[C@H](C(=O)O)[C@@H]43)c2)c(CO)n1 [Example 18, 4-{3-[2-Hydroxymethyl-6-(3-methanesulfonyl-propoxy)-pyridin-3-yl]-benzyloxy}-1,1a,6,6a-tetrahydro-cyclopropa[a]indene-1-carboxylic acid] |  | 0.206
18 | Cc1cc(NCCCS(C)(=O)=O)ncc1-c1cccc(COc2ccc3c(c2)C[C@H]2[C@H](C(=O)O)[C@@H]32)c1 [Example 15, 4-{3-[6-(3-Methanesulfonyl-propylamino)-4-methyl-pyridin-3-yl]-benzyloxy}-1,1a,6,6a-tetrahydro-cyclopropa[a]indene-1-carboxylic acid] |  | 0.317
19 | Cc1cc(OC2CCS(=O)(=O)CC2)ncc1-c1ccc(F)c(COc2ccc3c(c2)C[C@H]2[C@H](C(=O)O)[C@@H]32)c1 [Example 10, 4-{5-[6-(1,1-Dioxo-hexahydro-l16-thiopyran-4-yloxy)-4-methyl-pyridin-3-yl]-2-fluoro-benzyloxy}-1,1a,6,6a-tetrahydro-cyclopropa[a]indene-1-carboxylic acid] |  | 0.0931
20 | Cc1nc(NCCCS(C)(=O)=O)ccc1-c1cccc(COc2ccc3c(c2)C[C@H]2[C@H](C(=O)O)[C@@H]32)c1 [Example 12, 4-{3-[6-(3-Methanesulfonyl-propylamino)-2-methyl-pyridin-3-yl]-benzyloxy}-1,1a,6,6a-tetrahydro-cyclopropa[a]indene-1-carboxylic acid] |  | 0.123
